According to article PMC8120183, “Cardamonin inhibits the progression of oesophageal cancer by inhibiting the PI3K/AKT signalling pathway” (Journal of Cancer, 2021):
Peptide text beside a SMILES is read from it. * marks the point of attachment. Cbz = O=C(OCc1ccccc1)*; CH2F = FC*

Experiments:
[1] = test system: EC9706 and TE10 oesophageal cancer cells; assay: Hoechst 33258 staining, apoptosis; format: cell-based, human
Procedure: Cells were seeded into 24-well plates (3×10^4 cells/well). The cells were treated with different concentrations of CAR and then incubated for 48 h, followed by fixation with 4% paraformaldehyde for 30 min and one wash with PBS. The cells were stained with Hoechst 33258 (50 ng/ml) for 30 min. Apoptotic cells were observed using a fluorescence microscope (apoptotic cells were characterized by dense chromatin), and five randomly selected fields were used for cell counting.

EC9706 and TE10 cells [2] = assay: Transwell migration assay; format: cell-based, human
Procedure: (§1) A total of 100 μL of Matrigel was placed in the upper chamber of a Transwell system and incubated at 37 °C for 2 h to form a white membrane visible to the naked eye. Cells were resuspended in serum-free medium and adjusted to a concentration of 3×10^4 cells/well. Medium containing 10% FBS was added into the lower chamber, and CAR was added based on a concentration gradient. Next, the cells were incubated for 48 h and then stained with crystal violet for 10 min. Then, an inverted microscope was used to observe the cells; five fields were randomly selected to observe and count the cells. To assess cell migration, all the above steps were repeated, but Matrigel was not added to the upper chamber.

[3] = test system: oesophageal cancer cell lines EC9706 and TE10; assay: Colony formation assay; format: cell-based, human
Procedure: Oesophageal cancer cells were inoculated into 6-well plates at a density of 8×10^2 cells/well and treated with different concentrations of CAR. The cells were continuously cultured for two weeks until colonies visible to the naked eye had formed. Then, the supernatant was discarded, and crystal violet staining solution was added for 10 min. The cells were dried and photographed, and the colony formation rate was calculated.

[4] = test system: PI3K/AKT signalling pathway in EC9706 cells; assay: Western blot, PI3K/AKT signalling pathway; format: cell-based, human
Procedure: (§2) Oesophageal cancer cells were inoculated into a 6-well plate (5×10^5 cells/well). Cells were treated with different concentrations of CAR and then incubated for an additional 48 h. The cells were lysed using radio-immunoprecipitation assay (RIPA) buffer. The protein concentration was determined using a BCA kit. Proteins were separated by 8-12% sodium dodecyl sulfate-polyacrylamide gel electrophoresis (SDS-PAGE) and then transferred to a polyvinylidene fluoride (PVDF) membrane. The membrane was blocked with 5% nonfat milk for 1 h and then incubated with primary antibodies at 4 °C overnight. The membrane was then incubated with secondary antibodies for 1 h at room temperature. Finally, the membrane was imaged using a chemiluminescence imaging analyser. The greyscale value of each target protein band was analysed using the software provided with the analyser.

EC9706 cells [5] = assay: Annexin V-FITC/PI flow cytometry, apoptosis; format: cell-based, human; conditions: co-incubation with CAR
Procedure: After the oesophageal cancer cells were treated with different concentrations of CAR for 48 h, the cells were digested with trypsin, washed twice with PBS, and resuspended in 1× loading buffer. The cells were double-stained with 5 µL of annexin V-FITC and 5 μL of PI and then incubated in the dark for 30 min before flow cytometry analysis.

[6] = test system: EC9706 and TE10 oesophageal cancer cells; assay: Wound healing assay; format: cell-based, human; conditions: within 24 h
Procedure: Oesophageal cancer cells were seeded into 6-well plates (5×10^5 cells/well) and then linearly scratched with a 10-μL pipette tip. After treatment for 24 h with different concentrations of CAR, cell migration was observed using an inverted microscope.

TE10 cells = assay: MTT assay, cell viability and IC50; format: cell-based, human
Procedure: (§3) EC9706 and TE10 oesophageal cancer cells in the logarithmic growth phase were harvested and inoculated into 96-well plates at a density of 3000 cells/well. The cells were cultured in an incubator for 12 h and then treated with different concentrations of CAR and DMSO. The NC group was also set up. After incubation for 24 h or 48 h, 10 µL of MTT solution (5 mg/ml) was added to each well. The supernatant was aspirated, and 100 µL of DMSO was added to each well. The absorbance at a wavelength of 490 nm was measured using a microplate reader.

EC9706 cells [7] = assay: MTT assay, cell viability and IC50; format: cell-based, human
Procedure: as §3

[8] = Body weight of xenograft mice; format: in vivo, nude mice; conditions: 5, 15 or 25 mg/kg by gavage, compared with control group
Procedure: (§4) A suspension of EC9706 cells (2×10^7 cells/ml) was injected into the middle of and posterior to the armpit of 4- to 6-week-old male nude mice. One week after inoculation, a soybean-sized subcutaneous mass appeared in the armpits of the mice. Then, different doses of CAR (5, 15, or 25 mg/kg) or sodium carboxymethyl cellulose (CMC), which served as a control, were administered by gavage once every three days. The body weights of the mice and tumour size were measured at the same time. Mice were euthanized 26 days after drug administration. Immunohistochemistry (IHC) was used to stain the tumours, and stomach tissue was stained with haematoxylin-eosin (HE).

[9] = test system: human normal oesophageal cells (HET-1A); assay: MTT assay, IC50 in normal cells; format: cell-based; conditions: 24 h and 48 h
Procedure: as §3
(§5) Supplementary Figure 1 (A -D) EC9706 and TE10 cells were treated with different concentrations of CAR or DMSO, and cell viability and the IC50 at 24 h and 48 h were examined by MTT assay. (E-H) HET-1A and GES-1 cells were treated with different […]
(§6) examined by MTT assay. (I-J) EC9706 cells were incubated with CAR or the caspase inhibitor Z-VAD- FMK or co-incubated, and mitochondrial apoptosis pathway- related proteins were detected by Western blot. […]
(§7) reverse the expression of Bcl2, Bax, Bad, caspase- 3, and cleaved caspase- 3. (K and L) The apoptosis of EC9706 cells after applying the caspase inhibitor Z-VAD- FMK was detected by […]
(§8) (1 picture or pasted object on this page, not shown here)

EC9706 xenograft = assay: EC9706 tumour xenograft model, tumour growth; format: in vivo, nude mice; conditions: 5, 15 or 25 mg/kg by gavage once every three days, compared with control group
Procedure: as §4

[10] = test system: normal gastric epithelial cells (GES-1); assay: MTT assay, IC50 in normal cells; format: cell-based, human; conditions: GES-1, 24 h and 48 h
Procedure: as §3, §5, §6, §7, §8

[11] = HE staining of important organs; format: in vivo, nude mice; conditions: treatment group vs control group
Procedure: as §4
Tumour tissues were fixed with 4% paraformaldehyde and embedded in paraffin. Paraffin-embedded tissue blocks were cut into slices with a thickness of […]. Tumour sections were immunohistochemically stained with PCNA (1:100), Bcl-2 (1:100), vimentin (1:100), phosphorylated Akt (1:100), and phosphorylated PI3K (1:100) antibodies according to the steps of the immunohistochemistry kit. For HE staining, tissues were sectioned after deparaffinization, stained with haematoxylin and eosin, and mounted on slides with neutral gum.

[12] = Serum ALT, AST and CR levels; format: in vivo, nude mice; conditions: mean±SD (n=3)
Procedure: as §4

[13] = test system: oesophageal cancer cell lines EC9706 and TE10; assay: Crystal violet staining, cell proliferation; format: cell-based, human; conditions: 4, 6, 8, 10 µM; 24 h and 48 h; similar in MTT assay
Procedure: Oesophageal cancer cells at a density of 3×10^4 cells/well were seeded in 24-well plates. Then, the cells were treated with different concentrations of prepared CAR or DMSO, and the NC group was set up. After incubation in an incubator for 24 h and 48 h, crystal violet staining solution was added to each well. After imaging under a scanner, the cells were fully dissolved in 20% acetic acid solution. To calculate cell viability, the optical density (OD) value of each well was measured at 590 nm using an enzyme-linked immunosorbent assay (ELISA) spectrophotometer.

[14] = test system: PCNA, p-PI3K, p-AKT, Bcl2, vimentin; assay: Immunohistochemistry of xenograft tumour tissue; format: in vivo, nude mice; conditions: with increasing CAR concentrations
Procedure: A suspension of EC9706 cells (2×10^7 cells/ml) was injected into the middle of and posterior to the armpit of 4- to 6-week-old male nude mice. One week after inoculation, a soybean-sized subcutaneous mass appeared in the armpits of the mice. Then, different doses of CAR (5, 15, or 25 mg/kg) or sodium carboxymethyl cellulose (CMC), which served as a control, were administered by gavage once every three days. The body weights of the mice and tumour size were measured at the same time. Mice were euthanized 26 days after drug administration. Immunohistochemistry (IHC) was used to stain the tumours, and stomach tissue was stained with haematoxylin-eosin (HE). Tumour tissues were fixed with 4% paraformaldehyde and embedded in paraffin. Paraffin-embedded tissue blocks were cut into slices with a thickness of 3-5 mm. Tumour sections were immunohistochemically stained with PCNA (1:100), Bcl-2 (1:100), vimentin (1:100), phosphorylated Akt (1:100), and phosphorylated PI3K (1:100) antibodies according to the steps of the immunohistochemistry kit. For HE staining, tissues were sectioned after deparaffinization, stained with haematoxylin and eosin, and mounted on slides with neutral gum.

EC9706 and TE10 cells [15] = assay: Transwell Matrigel invasion assay; format: cell-based, human; conditions: 48 h
Procedure: as §1

[16] = Blood routine related indexes; format: in vivo, nude mice; conditions: Mean±SD (n=3)
Procedure: as §4

PCNA in EC9706 cells = assay: Western blot, proliferation marker; format: cell-based, human; conditions: 48 h
Procedure: as §2

[17] = test system: E-cadherin, N-cadherin, vimentin, Snail, MMP2, MMP7, MMP9 in EC9706 cells; assay: Western blot, EMT-related marker proteins and MMPs; format: cell-based, human
Procedure: as §2

[18] = test system: Bad, Bax, Bcl-2, PARP, caspase-3 in EC9706 cells; assay: Western blot, apoptosis-related proteins; format: cell-based, human; conditions: 48 h
Procedure: as §2

[19] = 48 h, compared with control group
[20] = 5 mg/kg by gavage once every three days
[21] = 15 mg/kg by gavage once every three days
[22] = 25 mg/kg by gavage once every three days

Molecule: 740Y-P [reference compound]
- effect of PI3K agonist on apoptosis-promoting effect of CAR ([1]; Hoechst 33258 staining and flow cytometry, co-incubation with CAR): could partially reverse the apoptosis-promoting effect of CAR on EC9706 and TE10 cells
- effect of PI3K agonist on anti-migration and anti-invasion effects of CAR (EC9706 and TE10 cells [2]; scratch healing, Transwell migration and invasion assays, co-incubation with CAR): can partially reverse the anti-migration and anti-invasion effects of CAR on oesophageal cancer cells
- effect of PI3K agonist on antiproliferation effect of CAR ([3]; MTT and colony formation assays, co-incubation with CAR): could partially reverse the antiproliferation effect of CAR
- effect of PI3K agonist on CAR inhibition of PI3K/AKT ([4]; co-incubation with CAR): eliminated the inhibitory effect of CAR on PI3K/AKT in oesophageal cancer cells

Molecule: COC(=O)C[C@H](NC(=O)[C@H](C)NC(=O)[C@@H](NC(=O)OCc1ccccc1)C(C)C)C(=O)CF [Z-VAD-FMK] (Cbz-Val-Ala-Asp(OMe)-CH2F)
- effect of caspase inhibitor pretreatment on CAR-induced apoptosis (EC9706 cells [5]): could reverse the apoptosis induced by CAR

Molecule: COc1cc(O)cc(O)c1C(=O)/C=C/c1ccccc1 [CAR, Cardamonin]
- healing rate [6]: gradually decreased with increases in the CAR concentration
- number of apoptotic cells [1, 19]: gradually increased with increasing drug concentrations
- IC50 (TE10 cells; 24 h): 12.5 µM
- IC50 (TE10 cells; 48 h): 8.4 µM
- IC50 (EC9706 cells [7]; 24 h): 12.2 µM
- IC50 (EC9706 cells [7]; 48 h): 8.67 µM
- weight of mice [8]: did not significantly change
- IC50 in normal cells compared with oesophageal cancer cells [9]: higher IC50 values
- tumour growth (EC9706 xenograft): significantly inhibited tumour growth
- IC50 in normal cells compared with oesophageal cancer cells [10]: higher IC50 values
- HE staining of important organs [11]: no difference in HE staining was observed between the treatment group and the control group
- ALT [12, 20]: 25.97±1.19 U/L
- AST [12, 20]: 57.56±2.19 U/L
- CR [12, 20]: 51.41 ± 4.33 µmol/L
- ALT [12, 21]: 23.50±2.88 U/L
- AST [12, 21]: 55.38±3.26 U/L
- CR [12, 21]: 49.61 ± 6.54 µmol/L
- ALT [12, 22]: 21.04±2.52 U/L
- AST [12, 22]: 57.20±4.16 U/L
- CR [12, 22]: 53.34 ± 7.72 µmol/L
- cell proliferation [13]: inhibited oesophageal cancer cell proliferation in time- and concentration-dependent manners
- expression of PCNA, p-PI3K, p-AKT, Bcl2 and vimentin in tumour [14]: the expression levels of PCNA, p-PI3K, p-AKT, Bcl2, and vimentin were downregulated
- invasive ability (EC9706 and TE10 cells [15]): significantly inhibited the invasive ability of oesophageal cancer cells
- cell migration (EC9706 and TE10 cells [2]; [19]): significantly inhibited oesophageal cancer cell migration
- Gran [16, 20]: 25.43±2.58%
- HCT [16, 20]: 39.87±7.80%
- HGB [16, 20]: 131.33 ± 6.51 g/L
- LYM [16, 20]: 70.80±4.07%
- MCH [16, 20]: 20.07 ± 0.93 pg
- MCHC [16, 20]: 348.00 ± 12.77 g/L
- MCV [16, 20]: 57.63 ± 1.50 fL
- Mon [16, 20]: 3.77±1.95%
- PLT [16, 20]: 1009±44.24 ×10^9/L
- RBC [16, 20]: 6.91±1.49 ×10^12/L
- WBC [16, 20]: 3.90±0.17 ×10^9/L
- Gran [16, 21]: 24.53±2.28%
- HCT [16, 21]: 35.77±1.86%
- HGB [16, 21]: 137.00 ± 19.00 g/L
- LYM [16, 21]: 72.30±3.15%
- MCH [16, 21]: 19.40 ± 2.07 pg
- MCHC [16, 21]: 332.33 ± 19.09 g/L
- MCV [16, 21]: 58.33 ± 2.78 fL
- Mon [16, 21]: 3.17±1.01%
- PLT [16, 21]: 1074.00±42.80 ×10^9/L
- RBC [16, 21]: 6.13±0.08 ×10^12/L
- WBC [16, 21]: 3.82±0.07 ×10^9/L
- Gran [16, 22]: 23.53±2.25%
- HCT [16, 22]: 34.30±2.17%
- HGB [16, 22]: 142.33 ± 5.69 g/L
- LYM [16, 22]: 74.13±1.53%
- MCH [16, 22]: 17.93 ± 0.49 pg
- MCHC [16, 22]: 336.00 ± 7.00 g/L
- MCV [16, 22]: 56.03 ± 1.56 fL
- Mon [16, 22]: 3.20±0.87%
- PLT [16, 22]: 1077.00±42.58 ×10^9/L
- RBC [16, 22]: 6.42±0.19 ×10^12/L
- WBC [16, 22]: 3.80±0.14 ×10^9/L
- PCNA expression (PCNA in EC9706 cells): significantly inhibited PCNA expression
- colony formation ([3]; two weeks culture): significant inhibitory effect on the colony formation of oesophageal cancer cells in a concentration-dependent manner
- protein levels of p-PI3K and p-AKT ([4]; EC9706 cells, with increasing CAR concentrations): decreased significantly
- E-cadherin expression [17]: upregulated the expression of E-cadherin
- MMP2, MMP7 and MMP9 expression [17]: significantly reduced the expression of MMP2, MMP7, and MMP9
- N-cadherin, vimentin and Snail expression [17]: significantly downregulated the expression of N-cadherin and vimentin as well as the EMT transcription factor Snail
- expression of anti-apoptosis-related proteins [18]: downregulated the expression level of the anti-apoptosis-related proteins Bcl-2, PARP, and caspase-3
- expression of pro-apoptosis-related proteins [18]: upregulated the expression levels of the pro-apoptosis-related proteins Bad, Bax, cleaved PARP, and cleaved caspase-3
